According to patent publication US20260028326A1, “COMPOUND BASED ON ISOINDOLINE-SUBSTITUTED GLUTARIMIDE BACKBONE AND USE THEREOF” (GLUETACS THERAPEUTICS (SHANGHAI) CO., LTD., priority 2022, published 2026):
pIC50: −log10 of the molar value.

molecular target: human Cereblon WT GST-tagged protein (Homo sapiens (Human), UniProt Q96SW2); assay: CRBN-binding affinity, HTRF (CEREBLON BINDING kit)
Description: The CEREBLON BINDING kits (specification: 10,000 tests; product number: Catalog #64BDCRBNPEH; CISBIO company) was used to determine the CRBN binding ability of the compounds to be tested through a HTRF method (homogeneous time-resolved fluorescence). The specific methods are as follows: • 1. […] Then, 2.5 μL of human Cereblon WT GST-tagged protein solution was added to each well. Finally, 5 μL of the thoroughly mixed Thalidomide-Re reagent and GST Eu antibody working solution were added to each of the aforementioned wells. […] The blank control wells were sequentially added with 2.5 μL of diluent #9 (1×) solution, 2.5 μL of PROTAC binding buffer, and 5 μL of thoroughly mixed Thalidomide-Re reagent and GST Eu antibody working solution. • 4.
The corresponding CRBN binding inhibition rate was calculated using the following method: […]

Chain of human Cereblon WT GST-tagged protein (Q96SW2 whole entry): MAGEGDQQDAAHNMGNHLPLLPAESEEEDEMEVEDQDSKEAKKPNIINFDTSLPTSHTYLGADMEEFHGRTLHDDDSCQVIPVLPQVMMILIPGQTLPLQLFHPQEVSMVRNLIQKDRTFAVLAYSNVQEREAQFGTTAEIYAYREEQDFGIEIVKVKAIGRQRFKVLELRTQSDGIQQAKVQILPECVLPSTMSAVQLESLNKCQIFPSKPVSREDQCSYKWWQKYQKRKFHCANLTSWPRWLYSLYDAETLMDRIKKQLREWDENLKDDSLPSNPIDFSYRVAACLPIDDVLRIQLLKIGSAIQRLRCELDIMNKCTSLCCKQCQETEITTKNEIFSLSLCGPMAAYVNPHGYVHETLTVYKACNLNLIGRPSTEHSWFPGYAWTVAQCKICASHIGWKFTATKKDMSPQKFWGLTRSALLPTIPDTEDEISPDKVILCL

SMILES | pIC50
CC1(C)CCC(CN2CC3CC(C2)N3Cc2cc3c(cc2F)C(=O)N(C2CCC(=O)NC2=O)C3)=C(c2ccc(Cl)cc2)C1 (stereo not shown) [GT-05367, 3-(5-((3-((4′-chloro-5,5-dimethyl-3,4,5,6-tetrahydro-[1,1′-biphenyl]-2-yl)methyl)-3,6-diazabicyclo[3.1.1]heptan-6-yl)methyl)-6-fluoro-1-oxoisoindolin-2-yl)piperidine-2,6-dione] | 6.40
O=C1CCC(N2Cc3cc(CN4CCN(C(=O)C5=C(c6ccc(F)cc6)CCCC5)CC4)ccc3C2=O)C(=O)N1 (stereo not shown) [GT-04170, 3-(5-((4-(4′-fluoro-3,4,5,6-tetrahydro-[1,1′-biphenyl]-2-carbonyl)piperazin-1-yl)methyl)-1-oxoisoindolin-2-yl)piperidine-2,6-dione] | 6.00
CC1(C)CCC(CN2CC3CN(Cc4ccc5c(c4)CN(C4CCC(=O)NC4=O)C5=O)CC3C2)=C(c2ccc(F)cc2)C1 (stereo not shown) [GT-05398, 3-(5-((5-((4′-fluoro-5,5-dimethyl-3,4,5,6-tetrahydro-[1,1′-biphenyl]-2-yl)methyl)hexahydropyrrolo[3,4-c]pyrrol-2(1H)-yl)methyl)-1-oxoisoindolin-2-yl)piperidine-2,6-dione] | 5.98
CC1(C)CCC(CN2CC3CCC2CN3C(=O)c2ccc3c(c2)CN(C2CCC(=O)NC2=O)C3=O)=C(c2ccc(Cl)cc2)C1 (stereo not shown) [GT-05795, 3-(5-(5-((4′-chloro-5,5-dimethyl-3,4,5,6-tetrahydro-[1,1′-biphenyl]-2-yl)methyl)-2,5-diazabicyclo[2.2.2]octane-2-carbonyl)-1-oxoisoindolin-2-yl)piperidine-2,6-dione] | 6.03
O=C1CCC(N2Cc3cc(CN4C5CC4CN(C(=O)C4=C(c6ccc(F)cc6)CCCC4)C5)c(F)cc3C2=O)C(=O)N1 (stereo not shown) [GT-05476, 3-(6-fluoro-5-((3-(4′-fluoro-3,4,5,6-tetrahydro-[1,1′-biphenyl]-2-carbonyl)-3,6-diazabicyclo[3.1.1]heptan-6-yl)methyl)-1-oxoisoindolin-2-yl)piperidine-2,6-dione] | 5.92
CC1(C)CCC(CN2CCC(Cc3ccc4c(c3)CN(C3CCC(=O)NC3=O)C4=O)CC2)=C(c2ccc(Cl)cc2)C1 (stereo not shown) [GT-03368, 3-(5-((1-((4′-chloro-5,5-dimethyl-3,4,5,6-tetrahydro-[1,1′-biphenyl]-2-yl)methyl)piperidin-4-yl)methyl)-1-oxoisoindolin-2-yl)piperidine-2,6-dione] | 5.86
O=C1CCC(N2Cc3cc(C(=O)N4CCCN(Cc5ccccc5-c5ccc(Cl)cc5)CC4)ccc3C2=O)C(=O)N1 (stereo not shown) [GT-05616, 3-(5-(4-((4′-chloro-[1,1′-biphenyl]-2-yl)methyl)-1,4-diazepane-1-carbonyl)-1-oxoisoindolin-2-yl)piperidine-2,6-dione] | 6.05
CC1(C)CCC(CN2CCN(Cc3cc(F)c4c(c3)CN(C3CCC(=O)NC3=O)C4=O)CC2)=C(c2ccc(F)cc2)C1 (stereo not shown) [GT-05392, 3-(7-fluoro-5-((4-((4′-fluoro-5,5-dimethyl-3,4,5,6-tetrahydro-[1,1′-biphenyl]-2-yl)methyl)piperazin-1-yl)methyl)-1-oxoisoindolin-2-yl)piperidine-2,6-dione] | 6.36
O=C1CCC(N2Cc3cc(CN4C5CC4CN(Cc4ccccc4-c4ccc(Cl)cc4)C5)c(F)cc3C2=O)C(=O)N1 (stereo not shown) [GT-05609, 3-(5-((3-((4′-chloro-[1,1′-biphenyl]-2-yl)methyl)-3,6-diazabicyclo[3.1.1]heptan-6-yl)methyl)-6-fluoro-1-oxoisoindolin-2-yl)piperidine-2,6-dione] | 6.27
O=C1CCC(N2Cc3cc(CN4CC5CC4CN5Cc4ccccc4-c4ccc(Cl)cc4)ccc3C2=O)C(=O)N1 (stereo not shown) [GT-05707, 3-(5-((5-((4′-chloro-[1,1′-biphenyl]-2-yl)methyl)-2,5-diazabicyclo[2.2.1]heptan-2-yl)methyl)-1-oxoisoindolin-2-yl)piperidine-2,6-dione] | 6.15
CC1(C)CCC(CN2C3CCC2CN(C(=O)c2ccc4c(c2)CN(C2CCC(=O)NC2=O)C4=O)C3)=C(c2ccc(Cl)cc2)C1 (stereo not shown) [GT-05446, 3-(5-(8-((4′-chloro-5,5-dimethyl-3,4,5,6-tetrahydro-[1,1′-biphenyl]-2-yl)methyl)-3,8-diazabicyclo[3.2.1]octane-3-carbonyl)-1-oxoisoindolin-2-yl)piperidine-2,6-dione] | 5.73
CC1(C)CCC(CN2CC3CCC2CN3Cc2cccc3c2C(=O)N(C2CCC(=O)NC2=O)C3)=C(c2ccc(Cl)cc2)C1 (stereo not shown) [GT-05462, 3-(7-((5-((4′-chloro-5,5-dimethyl-3,4,5,6-tetrahydro-[1,1′-biphenyl]-2-yl)methyl)-2,5-diazabicyclo[2.2.2]octan-2-yl)methyl)-1-oxoisoindolin-2-yl)piperidine-2,6-dione] | 5.72
CC1(C)CCC(C(=O)N2CC3CC(C2)N3Cc2ccc3c(c2)CN(C2CCC(=O)NC2=O)C3=O)=C(c2ccc(F)cc2)C1 (stereo not shown) [GT-05514, 3-(5-((3-(4′-fluoro-5,5-dimethyl-3,4,5,6-tetrahydro-[1,1′-biphenyl]-2-carbonyl)-3,6-diazabicyclo[3.1.1]heptan-6-yl)methyl)-1-oxoisoindolin-2-yl)piperidine-2,6-dione] | 6.13
O=C1CCC(N2Cc3c(ccc(CN4C5CC4CN(C(=O)c4ccccc4-c4ccc(Cl)cc4)C5)c3F)C2=O)C(=O)N1 (stereo not shown) [GT-05666, 3-(5-((3-(4′-chloro-[1,1′-biphenyl]-2-carbonyl)-3,6-diazabicyclo[3.1.1]heptan-6-yl)methyl)-4-fluoro-1-oxoisoindolin-2-yl)piperidine-2,6-dione] | 6.16
CC1(C)CCC(CN2CCN(Cc3cccc4c3CN(C3CCC(=O)NC3=O)C4=O)CC2)=C(c2ccc(F)cc2)C1 (stereo not shown) [GT-05393, 3-(4-((4-((4′-fluoro-5,5-dimethyl-3,4,5,6-tetrahydro-[1,1′-biphenyl]-2-yl)methyl)piperazin-1-yl)methyl)-1-oxoisoindolin-2-yl)piperidine-2,6-dione] | 6.47
CC1(C)CCC(CN2CCN(C(=O)c3ccc4c(c3)C(=O)N(C3CCC(=O)NC3=O)C4=O)CC2)=C(c2ccc(Cl)cc2)C1 (stereo not shown) [GT-05366, 5-(4-((4′-chloro-5,5-dimethyl-3,4,5,6-tetrahydro-[1,1′-biphenyl]-2-yl)methyl)piperazine-1-carbonyl)-2-(2,6-dioxopiperidin-3-yl)isoindoline-1,3-dione] | 5.84
CC1(C)CCC(CN2C3CCC2CN(Cc2cc(F)c4c(c2)CN(C2CCC(=O)NC2=O)C4=O)C3)=C(c2ccc(Cl)cc2)C1 (stereo not shown) [GT-05536, 3-(5-((8-((4′-chloro-5,5-dimethyl-3,4,5,6-tetrahydro-[1,1′-biphenyl]-2-yl)methyl)-3,8-diazabicyclo[3.2.1]octan-3-yl)methyl)-7-fluoro-1-oxoisoindolin-2-yl)piperidine-2,6-dione] | 5.98
O=C1CCC(N2Cc3c(CN4CCN(C(=O)c5ccccc5-c5ccc(Cl)cc5)CC4)cccc3C2=O)C(=O)N1 (stereo not shown) [GT-05701, 3-(4-((4-(4′-chloro-[1,1′-biphenyl]-2-carbonyl)piperazin-1-yl)methyl)-1-oxoisoindolin-2-yl)piperidine-2,6-dione] | 5.74
CC1(C)CCC(CN2C[C@H]3C[C@@H]2CN3C(=O)c2ccc3c(c2)CN(C2CCC(=O)NC2=O)C3=O)=C(c2ccc(Cl)cc2)C1 (stereo partly drawn) [GT-05441, 3-(5-((1R,4R)-5-((4′-chloro-5,5-dimethyl-3,4,5,6-tetrahydro-[1,1′-biphenyl]-2-yl)methyl)-2,5-diazabicyclo[2.2.1]heptane-2-carbonyl)-1-oxoisoindolin-2-yl)piperidine-2,6-dione] | 5.80
O=C1CCC(N2Cc3cc(CN4CC5CN(C(=O)c6ccccc6-c6ccc(Cl)cc6)CC5C4)ccc3C2=O)C(=O)N1 (stereo not shown) [GT-05645, 3-(5-((5-(4′-chloro-[1,1′-biphenyl]-2-carbonyl)hexahydropyrrolo[3,4-c]pyrrol-2(1H)-yl)methyl)-1-oxoisoindolin-2-yl)piperidine-2,6-dione] | 6.15
CC1(C)CCC(CN2CCC(Cc3ccc4c(c3)CN(C3CCC(=O)NC3=O)C4=O)CC2)=C(c2ccc(F)cc2)C1 (stereo not shown) [GT-03455, 3-(5-((1-((4′-fluoro-5,5-dimethyl-3,4,5,6-tetrahydro-[1,1′-biphenyl]-2-yl)methyl)piperidin-4-yl)methyl)-1-oxoisoindolin-2-yl)piperidine-2,6-dione] | 6.47
CC1(C)CCC(CN2CC3CCC(C2)N3Cc2ccc3c(c2)CN(C2CCC(=O)NC2=O)C3=O)=C(c2ccc(Cl)cc2)C1 (stereo not shown) [GT-03889, 3-(5-((3-((4′-chloro-5,5-dimethyl-3,4,5,6-tetrahydro-[1,1′-biphenyl]-2-yl)methyl)-3,8-diazabicyclo[3.2.1]octan-8-yl)methyl)-1-oxoisoindolin-2-yl)piperidine-2,6-dione] | 6.15
O=C1CCC(N2Cc3cc(CN4CCC(Nc5ccccc5-c5ccc(Cl)cc5)CC4)ccc3C2=O)C(=O)N1 (stereo not shown) [GT-03991, 3-(5-((4-((4′-chloro-[1,1′-biphenyl]-2-yl)amino)piperidin-1-yl)methyl)-1-oxoisoindolin-2-yl)piperidine-2,6-dione] | 6.33
CC1(C)CCC(CN2C3CC2CN(Cc2ccc4c(c2)CN(C2CCC(=O)NC2=O)C4=O)C3)=C(c2ccc(Cl)cc2)C1 (stereo not shown) [GT-03995, 3-(5-((6-((4′-chloro-5,5-dimethyl-3,4,5,6-tetrahydro-[1,1′-biphenyl]-2-yl)methyl)-3,6-diazabicyclo[3.1.1]heptan-3-yl)methyl)-1-oxoisoindolin-2-yl)piperidine-2,6-dione] | 6.20
O=C1CCC(N2C(=O)c3ccc(CN4CCN(Cc5ccncc5-c5ccc(Cl)cc5)CC4)cc3C2=O)C(=O)N1 (stereo not shown) [GT-05731, 5-((4-((3-(4-chlorophenyl)pyridin-4-yl)methyl)piperazin-1-yl)methyl)-2-(2,6-dioxopiperidin-3-yl)isoindoline-1,3-dione] | 5.78
